From article PMC10999085, “Synthesis, anticancer evaluation, molecular docking and ADME study of novel pyrido[4ʹ,3ʹ:3,4]pyrazolo[1,5-a]pyrimidines as potential tropomyosin receptor kinase A (TrKA) inhibitors” (BMC Chemistry, 2024)
“Also recorded” adds a separate entry of the source.

Experiments:
Format in all cases: cell-based, human
MCF7 cell line = assay: MTT assay, MCF7 cell line; settings: 24 hr treatment, in % (unit assumed); for Cytotoxicity at 5 µg/l: MCF7, 5 µg/l; for Cytotoxicity at 10 µg/l: MCF7, 10 µg/l; for Cytotoxicity at 20 µg/l: MCF7, 20 µg/l
Outline: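 Cells in RPMI-1640 with 10% FBS were seeded at 1.0x10^4 cells/well and cultured 48 h, then exposed to compound for 24 hr. Viability was measured by MTT reduction (4 hr), with formazan dissolved in DMSO and read at 570 nm, relative to untreated cells. Values are means of three independent triplicate experiments.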

HepG2 cells [1] = assay: In-vitro cell cycle analysis (PI flow cytometry); settings: for Cell cycle comment (phase of arrest): HepG2; for DNA content %G0-G1 / DNA content %G2/M / DNA content %Pre-G1 / DNA content %S: HepG2, compound at its IC50; for increase of the proportion of cells in the G2/M phase: HepG2, versus control
Method: HepG-2 cells are pre-cultured in 25 cm^2 cell culture flask. RPMI-1640 medium was used. Tested compounds 7b, 9c, 15b, 16a and 16c were used in the cell treatment at their IC50 by dissolving them in the required medium separately. The procedure was discussed in details in the ESI.
For cell cycle analysis, stained DNA from HepG2 cancer cells was treated with compounds 7b, 15b, 16a and 16c that induce cancer cell death by inhibiting TrKA. From the results in Table 5, it can be seen that the proportion of cells at phase in the pre-G1 of compounds 7b, 15b, 16a and 16c increased the proportion of cells at phase in the G2/M by about 4, 4, 2.5 and 3 folds, respectively.
HepG-2 cells were pre-cultured in 25 cm^2 cell culture flasks; RPMI-1640 medium was used. Tested compounds 7b, 15b, 16a and 16c were dissolved separately in the required medium and used in the cell treatment at their IC50. After overnight treatment the cells were collected and fixed gently with 70% (v/v) ethanol in PBS, incubated overnight at 4 °C, and resuspended in PBS containing 40 µg/ml propidium iodide (PI), 0.1 mg/ml RNase and 0.1% (v/v) Triton X-100 in the dark room at after 30 min at 37 °C, the cell cycle analysis was performed using a flow cytometer, equipped with an argon ion laser at a wavelength of 488 nm (Becton-Dickinson, San Josa, CA, USA) and the percentage of cells at G1, S and G2/M was also calculated.

HepG2 cells [2] = assay: Annexin V-FITC apoptosis assay; settings: for Apoptosis Early / Apoptosis Late / Necrosis: HepG2, 48 h, Annexin V-FITC/PI; for increase of early apoptosis ratio / increase of late apoptosis rate: HepG2, compared with untreated control cells
Method: HepG-2 cells were harvested and incubated with compounds 7b, 15b, 16a and 16c separately for 48 h. Then, the cells were collected and washed with PBS two successive times followed by centrifugation. After that, the cells were treated with Annexin V-FITC and propidium iodide (PI) using the apoptosis detection kit (BD Biosciences and Annexin V-FITC and PI binding were analyzed by a flow cytometer.
Early and late apoptosis was determined after treatment of HepG2 cells with compounds 7b, 15b, 16a and 16c compared with untreated control cells. The late apoptosis rate increased by about 13, 20, 4 and 3 times, respectively, showing a higher efficiency than the early apoptosis ratio 5, 2, 8 and 6 times, respectively.
As mentioned above, HepG-2 cells were collected and incubated separately with compounds 7b, 15b, 16a and 16c for 48 hr. Cells were then collected and washed twice consecutively with PBS and centrifuged. After that, the cells were treated with Annexin V-FITC and propidium iodide (PI) using an apoptosis detection kit (BD Biosciences, San Jose, CA) according to the manufacturer's instructions. The biding of Annexin V-FITC and PI was analyzed by ﬂow cytometer.

Structure (SMILES) | Cytotoxicity at 5 µg/l (MCF7 cell line) | Cytotoxicity at 10 µg/l (MCF7 cell line) | Cytotoxicity at 20 µg/l (MCF7 cell line) | Cell cycle comment (phase of arrest) (HepG2 cells [1]) | DNA content %G0-G1 (HepG2 cells [1]) | DNA content %G2/M (HepG2 cells [1]) | DNA content %Pre-G1 (HepG2 cells [1]) | DNA content %S (HepG2 cells [1]) | increase of the proportion of cells in the G2/M phase (HepG2 cells [1]) | Apoptosis Early (HepG2 cells [2]) | Apoptosis Late (HepG2 cells [2]) | Necrosis (HepG2 cells [2]) | apoptosis-inducing effect (HepG2 cells [2]; HepG2, as stated in the abstract) | increase of early apoptosis ratio (HepG2 cells [2]) | increase of late apoptosis rate (HepG2 cells [2])
COc1ccc(C=C2C(=O)NC(=O)c3c2nn2c(C)cc(C)nc32)cc1 [Compound 7b] | 60.48 | 79.12 | 95.03 | arrested in the cell cycle at G2/M phase; also recorded: arrest in cell cycle at the G2/M phase; also recorded: cell growth arrest@G2/M | 38.42% | 34.70% | 24.89% | 26.88% | about 4 folds | 5.71% | 13.72% | 5.46% | 34.70% | 5 times | about 13 times
Cc1cc(O)n2nc3c(c2n1)C(=O)NC(=O)C3=NNc1ccccc1 [Compound 16a, 4-Hydroxy-2-methyl-7-(2-phenylhydrazono)pyrido[4ʹ,3ʹ:3,4]pyrazolo[1,5-a]pyrimid-ine-8,10(7H,9H)-dione] | 55.09 | 57.34 | 77.25 | arrest in cell cycle at the G2/M phase; also recorded: cell growth arrest@G2/M | 42.11% | 21.74% | 15.33% | 36.15% | ~2.5 folds | 8.26% | 4.32% | 2.75% |  | 8 times | ~4 times
COc1ccc(NN=C2C(=O)NC(=O)c3c2nn2c(O)cc(C)nc32)cc1 [Compound 16c, 4-Hydroxy-7-(2-(4-methoxyphenyl)hydrazono)-2-methylpyrido[4ʹ,3ʹ:3,4]pyrazolo[1,5-a]pyrimidine-8,10(7H,9H)-dione] | 56.81 | 62.79 | 79.61 | arrest in cell cycle at the G2/M phase; also recorded: cell growth arrest@G2/M | 41.61% | 26.45% | 12.07% | 31.94% | ~3 folds | 6.31% | 3.20% | 2.56% |  | 6 times | ~3 times
